Patent US20220280461A1, “SOLID ORAL DOSAGE FORM COMPRISING NAPROXEN AND VITAMIN B12” (DSM IP ASSETS B.V., priority 2019, published 2022)

Assay: Bulk density, tapped density and Carr Index (flowability) of raw materials and granules
Experimental: The Carr Index is calculated by the formula 100×(1-BD/TD) and is used as an indication of the flowability.

Description (physical characterization of powder): very lumpy
SMILES: COc1ccc2cc([C@H](C)C(=O)O)ccc2c1 [Naproxen Sodium, naproxen sodium]
